# US8802597B2, “Herbicidal pyrimidines” (E I du Pont de Nemours and Company, priority 2003, dated 2014)
# How the values were obtained:
# [1] = tested on: common chickweed (Stellaria media); assay: Test D pre/postemergence; type: in vivo; conditions: scale 0 to 100 (100 = complete control)
# Text: (§1) Seeds of plant species selected from catchweed bedstraw (galium; Galium aparine), common chickweed (Stellaria media), kochia (Kochia scoparia), lambsquarters (Chenopodium album), pigweed (Amaranthus retroflexus), Russian thistle (Salsola kali), wild buckwheat (Polygonum convolvulus), wild mustard (Sinapis arvensis), winter barley (Hordeum vulgare), and wheat (Triticum aestivum) were planted and treated preemergence with test chemicals formulated in a non-phytotoxic solvent mixture which included a surfactant.
# (§2) At the same time, plants selected from these crop and weed species were treated with postemergence applications of some of the test chemicals formulated in the same manner. Plants ranged in height from 2 to 18 cm (1- to 4-leaf stage) for postemergence treatments. Treated plants and controls were maintained in a controlled growth environment for 15 to 25 days after which time all species were compared to controls and visually evaluated. Plant response ratings, summarized in Table D, are based on a scale of 0 to 100 where 0 is no effect and 100 is complete control. A dash (-) response means no test result.
# [2] = tested on: pigweed (Amaranthus retroflexus); assay: Test D pre/postemergence; type: in vivo; conditions: scale 0 to 100 (100 = complete control)
# Text: as §1, §2
SMILES,"Plant response rating, Chickweed ([1]; Postemergence, 62 g ai/ha)","Plant response rating, Chickweed ([1]; Postemergence, 125 g ai/ha)","Plant response rating, Chickweed ([1]; Postemergence, 250 g ai/ha)","Plant response rating, Chickweed ([1]; Preemergence, 62 g ai/ha)","Plant response rating, Chickweed ([1]; Preemergence, 125 g ai/ha)","Plant response rating, Chickweed ([1]; Preemergence, 250 g ai/ha)","Plant response rating, Pigweed ([2]; Postemergence, 62 g ai/ha)","Plant response rating, Pigweed ([2]; Postemergence, 125 g ai/ha)","Plant response rating, Pigweed ([2]; Postemergence, 250 g ai/ha)","Plant response rating, Pigweed ([2]; Preemergence, 62 g ai/ha)","Plant response rating, Pigweed ([2]; Preemergence, 125 g ai/ha)","Plant response rating, Pigweed ([2]; Preemergence, 250 g ai/ha)","Plant response rating, Chickweed ([1]; Postemergence, 31 g ai/ha)","Plant response rating, Pigweed ([2]; Postemergence, 31 g ai/ha)"
COC(=O)c1nc(C2CC2)nc(NO)c1Br [Compound 35],80,80,85,60,100,100,100,100,100,65,80,85,–,–
COC(=O)c1nc(C2CC2C)nc(N)c1Br (centres unmarked) [Compound 28],65,65,65,60,60,60,60,60,70,45,–,80,–,–
CCOC(=O)Cc1nc(C2CC2)nc(N=CN(C)C)c1Br [Compound 33],40,50,60,–,–,65,45,55,55,60,70,90,–,–
CCOC(=O)C(OC(C)=O)c1nc(C2CC2)nc(N)c1Br (centres unmarked) [Compound 47],60,65,70,–,–,–,50,55,65,–,–,–,35,35
